Measurements reported in patent US10125157B2, “Derivatives of oxazaphosphorines that are pre-activated, use and method of preparation” (priority 2010, dated 2018).
Where two headings read alike, the source gives them in different places.

Assays:
[1] = compared with the active metabolite of IFO; cited from earlier work
[2] = Chemical stability of the 4-methoxy analogue; assay type: physicochemical; settings: releases isophosphoramide mustard rapidly
several cell lines = test: In vitro cytotoxicity over the panel of cell lines (MTS); settings: all cell lines tested, concentrations between 0.1 and 100 μM
Excerpt: Cytotoxicity of SQ-IFO and SQ-thio-IFO nanoparticles was studied in several cell lines:
• A549: human alveolar basal epithelial cell adenocarcinoma • MCF-7: human breast carcinoma • MCF-7 MDR: multidrug resistant human breast carcinoma • B16F10: mouse melanoma • KB 3.1: human epidermoid carcinoma • M109: mouse lung tumor cells • MiaPaCa-2: human pancreatic carcinoma • UW-479: human pediatric glioma • IGR OV1: human ovarian cancer • SK-N-MC: neuroblastoma, reclassified as Ewing (expression of EWS/Flip-1 oncogene)
The cell lines were maintained in DMEM or RPMI medium supplemented with 10% fetal calf serum and 1% antibiotics (100 U/mL penicillin and 100 μg/mL streptomycin) in an incubator at 37° C. in a humid 5% carbon dioxide atmosphere.
The cells were seeded in 96-well plates (TPP). Seeding was optimized for each line for an incubation time of 72 hours.
A549, MCF-7, B16F10, M109, MiaPaCa-2 cells were seeded at 5·10^3 cells/well. […] cells were seeded at 2·10^3 cells/well, IGR-OV1 cells at 10^4 cells/well and UW479 and SK-N-MC cells at 5·10^4 cells/well.
The compounds SQ-IFO and SQ-thio-IFO were synthesized according to the protocol described above. For each compound, an aqueous suspension of nanoparticles was prepared using the technique described by Fessi, Int. J. Pharm, 1989, 55, R1-R4.
For each compound, different concentrations between 0.1 and 100 μM were tested by serial dilution of a 2 mg/mL stock solution for SQ-IFO and a 10 mg/mL stock solution for SQ-thio-IFO in culture medium.
After 72 hours of incubation, cell viability was determined by observing the reduction of MTS reagent to formazan (CellTiter 96 AQueous One Solution kit, Promega). 20 μL of a 5 mg/mL solution of MTS in PBS were added per well. The incubation time of the MTS was optimized for each cell line; the absorbance at 490 nm was then read using a plate reader (EL808, Biotek).
The results are expressed as percentage of untreated cells. The data were treated with Prism 4 software (Graph Pad Software, San Diego). IC50 values were thus calculated for each line. Ifosfamide and squalenol were used as controls.

[3] = Nanoparticle size in aqueous medium; assay type: physicochemical; settings: for average size of nanoparticles: aqueous suspension prepared by the technique of Fessi, spherical; for size of nanoparticles: self-assembly in an aqueous medium
Excerpt: For example, the most recent and most promising application concerns the attachment of a squalene residue by this method by adding squalenol or squalene-thiol in the presence of BF3ET2O on the phosphoryl-iminium produced from 4-methoxy-MFI (Schemes 7 and 8). The compounds formed, SQ-4-O-MFI and SQ-4-S-MFI, have two interesting properties. The first is that they are pre-activated forms of MFI due to oxidation in position 4 that can release, in a slightly acidic aqueous medium, the alkylating mustard directly without metabolic activation. The second is that they are capable of self-assembly in an aqueous medium in the form of nanoparticles of a size of about 160 nm.
(§1) J. Pharm, 1989, 55, R1-R4.

IGR-OV1 (Ovary) = test: In vitro cytotoxicity, MTS cell viability test, 72 h; assay type: cell-based, human; settings: for IC50: Homo sapiens; for cytotoxic activity (in words): IGR-OV1 (Ovary) cells
Experimental: (§2) The cells were seeded in 96-well plates (TPP).
as §1
(§3) The results are expressed as percentage of untreated cells. […] IC50 values were thus calculated for each line. Ifosfamide and squalenol were used as controls.

UW 479 (Glioma) = test: as above; assay type: cell-based, human; settings: for IC50: Homo sapiens; for cytotoxic activity (in words): UW 479 (Glioma) cells
Experimental: as §2, §1, §3

B16F10 = test: as above; assay type: cell-based; settings: Mus musculus
Experimental: as §2, §1, §3

MCF-7 MDR = test: as above; assay type: cell-based; settings: Homo sapiens
Experimental: as §2, §1, §3

MiaPaCa-2 = test: as above; assay type: cell-based; settings: Homo sapiens
Experimental: as §2, §1, §3

KB 3.1 = test: as above; assay type: cell-based; settings: Homo sapiens
Experimental: as §2, §1, §3

SK-N-MC (Ewing) = test: as above; assay type: cell-based; settings: for IC50: Homo sapiens; for cytotoxic activity (in words): SK-N-MC (Ewing) cells
Experimental: as §2, §1, §3

MCF-7 = test: as above; assay type: cell-based; settings: Homo sapiens
Experimental: as §2, §1, §3

A549 = test: as above; assay type: cell-based; settings: Homo sapiens
Experimental: as §2, §1, §3

M109 = test: as above; assay type: cell-based, mouse; settings: for cytotoxic activity (in words): M109 cell line; for IC50: Mus musculus
Experimental: as §2, §1, §3

[4] = test system: RD human pediatric rhabdomyosarcoma model; test: In vivo efficacy, human rhabdomyosarcoma xenografted in nude mice; settings: RD xenograft, treated when tumor volume >80 mm^3, preliminary results
Experimental: In vivo cytotoxic efficacy was evaluated first on a model of human rhabdomyosarcoma xenografted in nude mice. The model used is the RD human pediatric rhabdomyosarcoma model. The cells were first amplified in culture and counted. 10·10^6 cells were injected subcutaneously in both flanks of each mouse. After graft uptake, when tumor volume reached >80 mm^3, the mice were treated with IFO-SQ or placebo.

Row | Compound | in vitro cytotoxicity (in words) (several cell lines) | average size of nanoparticles [3] [nm] | size of nanoparticles [3] | IC50 (IGR-OV1 (Ovary); IGROV-1, 72 h) [µM] | cytotoxic activity (in words) (IGR-OV1 (Ovary)) | IC50 (UW 479 (Glioma); 72 h) [µM] | cytotoxic activity (in words) (UW 479 (Glioma)) | IC50 (B16F10; B16-F10, 72 h) [µM] | IC50 (MCF-7 MDR; MCF7, 72 h) [µM] | IC50 (MiaPaCa-2; MIA PaCa-2, 72 h) [µM] | IC50 (KB 3.1; KB 3-1, 72 h) [µM] | IC50 (SK-N-MC (Ewing); SK-N-MC, 72 h) [µM] | cytotoxic activity (in words) (SK-N-MC (Ewing)) | IC50 (MCF-7; MCF7, 72 h) [µM] | IC50 (A549; A549, 72 h) [µM] | cytotoxic activity (in words) (M109) | IC50 (M109; M109, 72 h) [µM] | further results
1 | COC1CCOP(=O)(NCCCl)N1CCCl (stereo not shown) [4-MeO-IFO, 4-methoxy-ifosfamide] |  |  |  |  |  |  |  |  |  |  |  |  |  |  |  |  |  | cytotoxic potency [1]: equivalent to that of the active metabolite of IFO; chemical stability [2]: quite unstable
2 | CC(C)=CCC/C(C)=C/CC/C(C)=C/CC/C=C(\C)CC/C=C(\C)CCCOC1CCOP(=O)(NCCCl)N1CCCl (stereo not shown) [Ifosfamide SQ] | high in vitro cytotoxicity | 182 | about 160 nm | > 100 | not observed | > 100 | not observed | 73 | 78.8 | 32.5 | 50 | > 100 | not observed | 43.6 | 32.5 | not observed | > 100 | tumor volume compared to mice treated with placebo [4]: significant decrease in tumor volume
3 | O=P1(NCCCl)OCCCN1CCCl (stereo not shown) [Ifosfamide, reference compound] | did not exhibit significant cytotoxicity |  |  |  |  |  |  |  |  |  |  |  |  |  |  |  |  | IC50 (IGR-OV1 (Ovary); IGROV-1, IGR-OV1 (Ovary), 72 h incubation, nanoparticle suspension, MTS, read-out: IC50): > 100 µM; IC50 (UW 479 (Glioma); UW 479 (Glioma), 72 h incubation, nanoparticle suspension, MTS, read-out: IC50): > 100 µM; IC50 (B16F10; B16-F10, B16F10, 72 h incubation, nanoparticle suspension, MTS, read-out: IC50): > 100 µM; IC50 (MCF-7 MDR; MCF7, MCF-7 MDR, 72 h incubation, nanoparticle suspension, MTS, read-out: IC50): > 100 µM; IC50 (MiaPaCa-2; MIA PaCa-2, MiaPaCa-2, 72 h incubation, nanoparticle suspension, MTS, read-out: IC50): > 100 µM; IC50 (KB 3.1; KB 3-1, KB 3.1, 72 h incubation, nanoparticle suspension, MTS, read-out: IC50): > 100 µM; IC50 (SK-N-MC (Ewing); SK-N-MC (Ewing), 72 h incubation, nanoparticle suspension, MTS, read-out: IC50): > 100 µM; IC50 (MCF-7; MCF7, MCF-7, 72 h incubation, nanoparticle suspension, MTS, read-out: IC50): > 100 µM; IC50 (A549; A549, 72 h incubation, nanoparticle suspension, MTS, read-out: IC50): > 100 µM; IC50 (M109; M109, 72 h incubation, nanoparticle suspension, MTS, read-out: IC50): > 100 µM
4 | CC(C)=CCC/C(C)=C/CC/C(C)=C/CC/C=C(\C)CC/C=C(\C)CCC(=O)NCCSC1CCOP(=O)(NCCCl)N1CCCl (stereo not shown) [Ifosfamide-thio-SQ, (2-chloro-ethyl)-[3-(2-chloro-ethyl)-2-oxo-4-mercaptoethylamidosqualen-[1,3,2]oxazaphosphinan-2-yl]-amine] | high in vitro cytotoxicity | 182 | about 160 nm | 81 | high cytotoxic activity | 65 | high cytotoxic activity | 16.9 | 80 | 4.4 | 2.96 | 19 | high cytotoxic activity | 10.9 | 5.3 | high cytotoxic activity | 9.2 | 
5 | tris-nor-squalenol [reference compound] | did not exhibit significant cytotoxicity |  |  |  |  |  |  |  |  |  |  |  |  |  |  |  |  | 
